In US12629419B2, “Prevention or mitigation of T-cell engaging agent-related adverse effects” (Hoffmann-La Roche Inc., priority 2020, dated 2026):
“Also recorded” adds a separate entry of the source.

Key:
[1] = tested on: lymphoma patient derived xenograft (PDX); experiment: CD19-TCB anti-tumor activity in lymphoma PDX bearing humanized NSG mice; assay type: in vivo; conditions: sirolimus 5 mg/kg, p.o.; for anti-tumor activity in combination with CD19-TCB (0.5 mg/kg): ruxolitinib 30 mg/kg, dasatinib 20 mg/kg, dexamethasone, transient use
Experimental: (§1) FIG. 89. In vivo experiment timelines and dosing schedule. Humanized NSG mice were engrafted with a lymphoma PDX (5 million cells, s.c.). […] The kinase inhibitors were given twice on the day of the first CD19-TCB administration (D16, once 1 hour before CD19-TCB, and once afterwards), and then once (sirolimus) or twice (dasatinib, ruxolitinib) on the two following days (D17 and D18), as well as once 1 hour before each subsequent CD19-TCB administration.
(§2) First, we verified if the PDX cells were killed upon treatment with CD19-TCB in vitro, using a killing assay. The lymphoma PDX cells were co-cultured together with PBMCs (E:T=10:1) in the presence of CD19-TCB. […] Moreover, they were also administered one hour before each subsequent treatment to prevent residual cytokine secretion (FIG. 89).

[2] = tested on: CD19-TCB-induced cytokine release; experiment: CD19-TCB-induced cytokine release in humanized NSG mice (serum, Luminex); assay type: in vivo; conditions: serum 6 hrs post treatment with CD19-TCB
Excerpt: FIG. 81. In vivo experiment timelines and dosing schedule.
To best reproduce the pharmacodynamic profile of ruxolitinib, dasatinib and sirolimus in the clinic and to verify whether the resulting exposure would be sufficient to prevent CD19-TCB-induced cytokine release, dasatinib and ruxolitinib were given per os twice per day, and sirolimus was given per os twice per day on day 1 and then once per day.

[3] = tested on: cytokine release induced by CAR-T cells; experiment: cytokine release induced by PGLALA and CD16 CAR-T cells (Luminex); assay type: cell-based; conditions: 100 nM inhibitor
Experimental: FIG. 62. Effect of 100 nM ruxolitinib and 100 nM sirolimus on GM-CSF (A), IFN-γ (B), IL-2 (C) and TNF-α (D) induced by PGLALA CAR-T cells. PGLALA CAR-T cells were co-cultured together with CTV labelled WSU tumor cells (E:T=10:1) and escalating concentrations of PGLALA-Fc anti-CD20 IgG in the presence and absence of 100 nM ruxolitinib (ruxo) or 100 nM sirolimus (siro) respectively. At 24 hours, the supernatants from technical replicates were pooled and cytokines were analyzed by Luminex. Mean of n=2 donors.
FIG. 63. Effect of 100 nM ruxolitinib and 100 nM sirolimus on GM-CSF (A), IFN-γ (B), IL-2 (C) and TNF-α (D) induced by CD16 CAR-T cells. CD16 CAR-T cells were co-cultured together with CTV labelled WSU tumor cells (E:T=10:1) and escalating concentrations of wild-type Fc anti-CD20 IgG in the presence and absence of 100 nM ruxolitinib (ruxo) or 100 nM sirolimus (siro). At 24 hours, the supernatants from technical replicates were pooled and cytokines were analyzed by Luminex. Mean of n=2 donors.
(§3) To assess the impact of JAK inhibitor ruxolitinib and mTOR inhibitor sirolimus on cytokine release induced by CAR-T cells, we conducted a killing assay where PGLALA and CD16 universal CAR-T cells (CAR-T cells with a CAR comprising an anti-P329G-Fc scFv (binding to PGLALA Fc) or CD16 (binding to wild-type Fc)) were co-cultured with CTV WSU tumor cells in the presence of escalating concentrations of PGLALA Fc and wild-type Fc anti-CD20 IgG in medium supplemented with 100 nM ruxolitinib or 100 nM sirolimus. To verify whether ruxolitinib and sirolimus interfered with tumor cell killing by CAR-T cells, we measured killing of CTV WSU tumor cells by flow cytometry at 24 hours.

[4] = tested on: CD19-TCB-mediated cytokine release; experiment: cytokine release upon first CD19-TCB infusion in lymphoma PDX bearing mice (serum); assay type: in vivo; conditions: for effects on cytokine levels: compared with obinutuzumab pre-treatment
Experimental: as §1
FIG. 94. […] Cytokine levels were measured by Luminex in serum collected 6 hrs post first infusion with CD19-TCB. Mean of n=6-8 mice+SD with *p≤0.05, **p<0.01, ***p<0.001 by 1 way ANOVA (Kruskal Wallis test).
as §2

[5] = tested on: CD19-TCB-induced cytokine release; experiment: CD19-TCB NALM-6 assay, inhibitors added after 24 hrs: cytokine release; assay type: cell-based; conditions: 100 nM added at 24 hrs; between 24 hrs and 48 hrs
Experimental: FIG. 78. In vitro killing assay set-up. PBMCs were co-cultured with CTV labelled NALM-6 cells (E:T=10:1) in the presence of escalating concentrations of CD19-TCB for 24 hrs. At 24 hrs, the culture medium was supplemented with 100 nM dasatinib, 100 nM sirolimus or 100 nM ruxolitinib.
To assess whether the mTOR inhibitor sirolimus, the JAK1/2 inhibitor ruxolitinib and the Src inhibitor dasatinib can prevent further release of cytokines induced by the treatment of CD19-TCB, they were added in an in vitro killing assay after 24 hrs of activation (FIG. 78). In this assay CTV labelled NALM-6 tumors cells were co-cultured with PBMCs in the presence of escalating doses of CD19-TCB for 24 hrs. At 24 hrs, 100 nM ruxolitinib, 100 nM sirolimus or 100 nM dasatinib were added in the system. To verify if T cells were activated before the addition of the different kinase inhibitors, tumor cell killing and cytokine release were measured at 24 hrs (FIGS. 79 and 80). Lastly, cytokine release and tumor cell killing were measured at 48 hrs to assess the effect of the addition of 100 nM ruxolitinib, 100 nM sirolimus or 100 nM dasatinib on CD19-TCB-induced cytokine release as compared to the effect on killing.

CTV WSU tumor cells = experiment: tumor cell killing by PGLALA and CD16 universal CAR-T cells; assay type: cell-based; conditions: 100 nM inhibitor, 24 hours; for tumor cell killing by PGLALA CAR-T cells: PGLALA Fc anti-CD20 IgG; for tumor cell killing by CD16 CAR-T cells: wild-type Fc anti-CD20 IgG
Experimental: FIG. 61. CTV labelled WSU tumor cell killing by PGLALA CAR-T cells (A) and CD16 CAR-T cells (B) in the presence and absence of 100 nM ruxolitinib or 100 nM sirolimus. PGLALA CAR-T cells and CD16 CAR-T cells were co-cultured together with CTV labelled WSU tumor cells (E:T=10:1) and escalating concentrations of anti-CD20 IgG with either PGLALA-Fc (for PGLALA CAR-T cells) or wild-type Fc (for CD16 CAR-T cells) in the presence and absence of 100 nM ruxolitinib (ruxo) or 100 nM sirolimus (siro). At 24 hours, the technical replicates were pooled and stained with a LIVE/DEAD™ Near-IR dye to allow exclusion of dead CTV labelled WSU DLCL2 tumor cells by flow cytometry. 1 representative donor.
as §3

[6] = serum 6 hrs post first infusion with CD19-TCB, ruxolitinib 30 mg/kg

SMILES | anti-tumor activity in combination with CD19-TCB (0.5 mg/kg) [1] | CD19-TCB-induced IFN-γ and IL-6 release [2] | CD19-TCB-induced IL-2 and TNF-α [2] | release of IFN-γ, TNF-α and GM-CSF ([3]; CD16 CAR-T cells) | release of IFN-γ, TNF-α and GM-CSF ([3]; PGLALA CAR-T cells) | effects on cytokine levels [4] | IFN-γ, TNF-α and IL-2 release [4, 6] | IL-6 release [4, 6] | further release of IFN-γ, TNF-α and IL-6 [5] | tumor cell killing by PGLALA CAR-T cells (CTV WSU tumor cells) | tumor cell killing by CD16 CAR-T cells (CTV WSU tumor cells) | tumor growth, given as a single agent ([1]; dexamethasone 1, 0.5, 0.25 mg/kg) | release of IL-2 ([3]; CD16 CAR-T cells) | release of IL-2 ([3]; PGLALA CAR-T cells) | IL-2, IFN-γ, TNF-α and IL-6 release upon the first infusion ([4]; serum 6 hrs post first infusion with CD19-TCB) | further release of IFN-γ, TNF-α, IL-2 and IL-6 [5]
N#CC[C@H](C1CCCC1)n1cc(-c2ncnc3[nH]ccc23)cn1 [ruxolitinib, Ruxolitinib] | minimally interfered; also recorded: did not impair | comparable to the pre-treatement with obinutuzumab | slightly weaker | reduced | reduced | stronger than the effect of obinutuzumab pre-treatment | to a lower extent | decreased | only prevented further release | neither sirolimus nor ruxolitinib prevented | neither sirolimus nor ruxolitinib prevented |  |  |  |  | 
CO[C@H]1C[C@@H]2CC[C@@H](C)[C@@](O)(O2)C(=O)C(=O)N2CCCC[C@H]2C(=O)O[C@H]([C@H](C)C[C@@H]2CC[C@@H](O)[C@H](OC)C2)CC(=O)[C@H](C)/C=C(\C)[C@@H](O)[C@@H](OC)C(=O)[C@H](C)C[C@H](C)/C=C/C=C/C=C/1C [sirolimus, Sirolimus] | comparable to CD19-TCB alone; also recorded: did not impair | comparable to the pre-treatement with obinutuzumab | comparable to the pre-treatement with Gazyva® | strongly reduced | strongly reduced | stronger than the effect of obinutuzumab pre-treatment |  |  |  | neither sirolimus nor ruxolitinib prevented | neither sirolimus nor ruxolitinib prevented | reduction in tumor growth, yet not significant | strongly reduced | strongly reduced | suppressed | prevented further release
